Laboratory results from PMC6412362 (2019).

Columns and labels:
[1] = test system: 5GC (DNA, duplex) GCGCGCGCGC; test: G4-FID fluorescent intercalator displacement; conditions: 100 mM KCl, 20 mM potassium phosphate; PBS pH 6.8, 25 °C; thiazole orange displaced
[2] = test system: (T2G5T)4 (DNA, G4) TTGGGGGT; test: G4-FID fluorescent intercalator displacement; conditions: 100 mM KCl, 20 mM potassium phosphate; PBS pH 6.8, 25 °C; thiazole orange displaced
[3] = test system: AG3(T2AG3)3 (DNA, G4) AGGGTTAGGGTTAGGGTTAGGG; test: fluorimetric titration, ligand fluorescence, Hill fit; conditions: 100 mM KCl, 20 mM potassium phosphate; 25 °C; 1 μM ligand, DNA 0-3 μM; apparent; Hill n ≈ 2
[4] = test system: AG3(T2AG3)3 (DNA, G4) AGGGTTAGGGTTAGGGTTAGGG; test: G4-FID fluorescent intercalator displacement; conditions: 100 mM KCl, 20 mM potassium phosphate; PBS pH 6.8, 25 °C; thiazole orange displaced
[5] = test system: AG3(T2AG3)3 (DNA, G4) AGGGTTAGGGTTAGGGTTAGGG; test: UV-Vis titration; conditions: 100 mM KCl, 20 mM potassium phosphate; PBS 0.1 mM EDTA pH 6.8, 25 °C; 2 μM ligand; apparent
[6] = test system: 5GC (DNA, duplex) GCGCGCGCGC; test: UV-Vis titration; conditions: 100 mM KCl, 20 mM potassium phosphate; PBS 0.1 mM EDTA pH 6.8, 25 °C; 2 μM ligand; apparent
[7] = test system: (G4T4G4)2 (DNA, G4) GGGGTTTTGGGG; test: UV-Vis titration; conditions: 100 mM KCl, 20 mM potassium phosphate, PBS pH 6.8, 25 °C
[8] = test system: AG3(T2AG3)3 (DNA, G4) AGGGTTAGGGTTAGGGTTAGGG; test: CD melting at 290 nm; conditions: 100 mM KCl, 20 mM potassium phosphate; PBS pH 6.8; 6 μM as printed for solutions; derived from two Tm

C[n+]1ccc(Sc2cc3c(cc2Sc2cc[n+](C)cc2)-c2nc-3nc3nc(nc4[n-]c(nc5[n-]c(n2)c2cc(Sc6cc[n+](C)cc6)c(Sc6cc[n+](C)cc6)cc52)c2cc(Sc5cc[n+](C)cc5)c(Sc5cc[n+](C)cc5)cc42)-c2cc(Sc4cc[n+](C)cc4)c(Sc4cc[n+](C)cc4)cc2-3)cc1.[Zn+2]
DC50 [1]: 1930 ± 480 nM
DC50 [2]: 1840 ± 30 nM
KD [3]: 540 nM
DC50 [4]: 1950 ± 260 nM
KD [5]: (9.58 ± 0.09) × 10^−6 M
KD [6]: (1.28 ± 0.17) × 10^−5 M
binding ([7]; 2 μM ligand, red shift 17 nm): yes

COc1cc[n+](-c2cc3c(cc2-[n+]2ccc(OC)cc2)-c2nc-3nc3nc(nc4[n-]c(nc5[n-]c(n2)c2cc(-[n+]6ccc(OC)cc6)c(-[n+]6ccc(OC)cc6)cc52)c2cc(-[n+]5ccc(OC)cc5)c(-[n+]5ccc(OC)cc5)cc42)-c2cc(-[n+]4ccc(OC)cc4)c(-[n+]4ccc(OC)cc4)cc2-3)cc1.[Zn+2]
DC50 [1]: 1300 ± 210 nM
DC50 [2]: 1080 ± 80 nM
KD [3]: 74 nM
DC50 [4]: 1040 ± 280 nM
KD [5]: (7.61 ± 0.11) × 10^−8 M
ΔTm [8]: 11.8 °C
KD [6]: (4.74 ± 0.13) × 10^−4 M
binding ([7]; 2 μM ligand, red shift 15 nm): yes

C[n+]1ccc(-c2c3nc(c(-c4cc[n+](C)cc4)c4ccc([nH]4)c(-c4cc[n+](C)cc4)c4nc(c(-c5cc[n+](C)cc5)c5ccc2[nH]5)C=C4)C=C3)cc1
DC50 [1]: 940 ± 200 nM
DC50 [2]: 1170 ± 200 nM
KD [3]: 290 nM
DC50 [4]: 1070 ± 90 nM
ΔTm [8]: 7.0 °C
binding ([7]; red shift 13 nm): yes
